Test results taken from patent US20100249116A1 (priority 2007, published 2010).
Like-named read-outs stand apart in the source and are kept apart here.

Key:
[1] = test system: acute intoxication of male Wistar rats with ethylene glycol (EG); conditions: rat, in vivo
[2] = in vivo; conditions: male, Wistar, rat, sc

Cc1cn[nH]c1 [4MP, 4-methylpyrazole]
LD50 (toxicity parameter of EG) ([1]; male, Wistar, sc): 13000 mg/kg
K - Coefficient of efficiency (ratio of LD50 for treated animals to LD50 for non-treated animals) [1]: 3.71
KG - Coefficient of guaranteed defense (ratio of LD10 for treated animals to LD90 for non-treated animals) [1]: 2.04
LD10 (toxicity parameter of EG) ([1]; sc): 10600 mg/kg
LD16 (toxicity parameter of EG) ([1]; sc): 11000 mg/kg
LD84 (toxicity parameter of EG) ([1]; sc): 15200 mg/kg
LD90 (toxicity parameter of EG) ([1]; sc): 16100 mg/kg

OCCO [EG, Ethylene Glycol]
LD50 [2]: 3500 mg/kg
LD10 (toxicity parameter of EG) ([1]; male, Wistar, sc): 2220 mg/kg
LD16 (toxicity parameter of EG) ([1]; male, Wistar, sc): 2490 mg/kg
LD84 (toxicity parameter of EG) ([1]; male, Wistar, sc): 4530 mg/kg
LD90 (toxicity parameter of EG) ([1]; male, Wistar, sc): 5200 mg/kg
